What all share (assay): In vitro metalloprotease inhibition, fluorogenic MCA peptide substrate
Holding throughout (format): biochemical

One experiment has as its target T1, MMP-13 (Homo sapiens, UniProt P45452).
T1 construct: made in house; host or cells: baculovirus / insect cells
To be noted: recombinant human enzyme, APMA-activated, room temperature, pH 7.5; read-out: MMP-13 IC50.

The target of the next experiment is T2, MMP-1 (Homo sapiens, UniProt P03956).
T2 construct: host or cells: transfected HT-1080 cells
T2 sequence (P03956 100-469): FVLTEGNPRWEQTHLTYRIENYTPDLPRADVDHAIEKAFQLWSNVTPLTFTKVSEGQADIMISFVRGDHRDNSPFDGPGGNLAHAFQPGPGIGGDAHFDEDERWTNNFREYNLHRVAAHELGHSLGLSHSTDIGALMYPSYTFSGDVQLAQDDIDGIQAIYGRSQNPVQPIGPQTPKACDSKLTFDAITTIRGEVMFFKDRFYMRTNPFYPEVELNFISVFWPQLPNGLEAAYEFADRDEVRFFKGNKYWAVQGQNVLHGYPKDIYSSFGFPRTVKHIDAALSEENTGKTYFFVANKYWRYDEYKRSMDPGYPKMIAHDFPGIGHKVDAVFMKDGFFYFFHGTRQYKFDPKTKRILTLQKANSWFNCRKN
As to conditions: recombinant human enzyme, APMA-activated, room temperature, pH 7.5.

The target of another experiment is T3, MMP-2 (Homo sapiens, UniProt P08253).
T3 sequence (P08253 110-660): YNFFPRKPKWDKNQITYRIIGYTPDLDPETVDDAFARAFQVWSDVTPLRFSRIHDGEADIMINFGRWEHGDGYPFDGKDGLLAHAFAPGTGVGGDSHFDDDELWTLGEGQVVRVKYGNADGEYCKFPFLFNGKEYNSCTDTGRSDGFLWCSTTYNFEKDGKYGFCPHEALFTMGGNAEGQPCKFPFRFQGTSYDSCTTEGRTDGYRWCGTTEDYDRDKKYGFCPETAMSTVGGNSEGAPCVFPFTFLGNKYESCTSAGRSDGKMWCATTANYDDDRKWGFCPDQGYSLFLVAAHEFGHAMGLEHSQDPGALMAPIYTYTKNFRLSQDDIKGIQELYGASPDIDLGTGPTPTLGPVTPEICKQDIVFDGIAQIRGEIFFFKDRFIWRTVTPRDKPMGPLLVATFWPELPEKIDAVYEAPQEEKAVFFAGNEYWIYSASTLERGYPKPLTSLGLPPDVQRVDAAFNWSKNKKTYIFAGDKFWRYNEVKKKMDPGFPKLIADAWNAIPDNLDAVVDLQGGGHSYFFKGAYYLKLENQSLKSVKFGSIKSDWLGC
To be noted: room temperature, pH 7.5.

Values joined by “and” are separate entries in the source; they are usually repeats but may differ in a detail not shown here. Equal values may be shown once. Where only a bound is given, the exact number is not on record here.

Description for MMP-13: Briefly, 4-aminophenylmercuric acetate (APMA) or trypsin-activated MMPs were incubated with various concentrations of the inhibitor compound at room temperature for 5 minutes.
The expressed enzyme was purified first over a heparin agarose column and then over a chelating zinc chloride column. The proenzyme was activated by APMA for use in the assay.
The enzyme substrate is a methoxycoumarin-containing polypeptide having the following sequence:
MCA-ProLeuGlyLeuDpaAlaArgNH2, wherein MCA is methoxycoumarin and Dpa is 3-(2,4-dinitrophenyl)-L-2,3-diaminopropionyl alanine.
The assayed inhibitor compound in DMSO/buffer solution was compared to an equal amount of DMSO/buffer with no inhibitor as control using Microfluor™ White Plates (Dynatech). The inhibitor or control solution was maintained in the plate for 10 minutes and the substrate was added to provide a final concentration of 4 μM.
Inhibition was measured as a reduction in fluorescent intensity as a function of inhibitor concentration, using a Perkin Elmer L550 plate reader. The IC50 values were calculated from those values.
Description for MMP-2: Briefly, 4-aminophenylmercuric acetate (APMA) or trypsin-activated MMPs were incubated with various concentrations of the inhibitor compound at room temperature for 5 minutes. […] The assayed inhibitor compound in DMSO/buffer solution was compared to an equal amount of DMSO/buffer with no inhibitor as control using MicrofluorTM White Plates (Dynatech). The inhibitor or control solution was maintained in the plate for 10 minutes and the substrate was added to provide a final concentration of 4 μM. […] Inhibition was measured as a reduction in fluorescent intensity as a function of inhibitor concentration, using a Perkin Elmer [MUT] plate reader. The IC50 values were calculated from those values.

Turning to `CN(C(=O)Cc1ccncc1)[C@H](CS(=O)(=O)c1ccc(Oc2ccccc2)cc1)C(=O)NO` [Example 47], the results for the IC50 on MMP-13, on MMP-1 and at MMP-2 were 45.3 nM, 258 nM and 0.6 nM, respectively.

Take `CN[C@@H](CS(=O)(=O)c1ccc(Oc2ccccc2)cc1)C(=O)NO` [Example 41]: the 50% inhibitory concentration (IC50) on MMP-13 is 0.4 nM and 1 nM; at MMP-1 it was 440 nM and 670 nM; at MMP-2, 0.3 nM and 0.5 nM.

`CN(C(=O)OC(C)(C)C)[C@H](CS(=O)(=O)c1ccc(Oc2ccccc2)cc1)C(=O)NO` [Example 40]: the 50% inhibitory concentration (IC50) on MMP-13 amounted to 0.3 nM; on MMP-1 it was 1600 nM; at MMP-2, 0.3 nM.

Consider `CC(=O)NC(CS(=O)(=O)c1ccc(Sc2ccccc2)cc1)C(=O)NO` (stereo not drawn) [Example 15b, 2-(Acetylamino)-N-hydroxy-3-[[4-(phenylthio)phenyl]sulfonyl]propanamide], for which the 50% inhibitory concentration (IC50) at MMP-13 was 5.9 nM; at MMP-1, greater than 10000 nM; at MMP-2 it was 2.2 nM.

Turning to `O=C(N[C@@H](CS(=O)(=O)c1ccc(Oc2ccccc2)cc1)C(=O)NO)c1ccnc2ccccc12` [Example 50], the IC50 on MMP-13 is 0.3 nM; at MMP-1 it was 316 nM; on MMP-2, 0.3 nM.

As for `CC(N)(CS(=O)(=O)c1ccc(NC(=O)c2ccccc2)cc1)C(=O)NO` (stereo not drawn) [Example 61], the 50% inhibitory concentration (IC50) was 60 nM on MMP-13, greater than 10000 nM at MMP-1 and 1.1 nM against MMP-2.

As for `O=C(N[C@@H](CS(=O)(=O)c1ccc(Oc2ccccc2)cc1)C(=O)NO)c1ccncc1` [Example 46], the IC50 on MMP-13 is 1.1 nM; at MMP-1 it was 1310 nM; at MMP-2, 0.3 nM.

Take `O=C(N[C@@H](CS(=O)(=O)c1ccc(Oc2ccccc2)cc1)C(=O)NO)c1ccncc1` [Example 44]: the figures for the IC50 at MMP-13, at MMP-1 and on MMP-2 were 0.8 nM, 900 nM and 0.3 nM, respectively.

Regarding `CC(=O)N1CCC(C(=O)NC(CS(=O)(=O)c2ccc(Oc3ccccc3)cc2)C(=O)NO)CC1` (stereo not drawn) [Example 59], the concentration for half-maximal inhibition (IC50) at MMP-13 came out at 0.8 nM; on MMP-1, 580 nM; against MMP-2 it was 0.4 nM.

Regarding `O=C(NC(CS(=O)(=O)c1ccc(Sc2ccccc2)cc1)C(=O)NO)c1ccncc1` (stereo not drawn) [Example 28], the IC50 is 13 nM at MMP-13, greater than 10000 nM at MMP-1 and 5.5 nM on MMP-2.

For `O=C(N[C@@H](CS(=O)(=O)c1ccc(Oc2ccccc2)cc1)C(=O)NO)c1ccnc2ccccc12` [Example 51], the IC50 at MMP-13 is 0.4 nM; at MMP-1 it was 295 nM; on MMP-2 it was 0.3 nM.

With `CN(C(=O)OC(C)(C)C)C(C)(CS(=O)(=O)c1ccc(NC(=O)c2ccccc2)cc1)C(=O)NO` (stereo not drawn) [Example 63], the IC50 came out at 21.5 nM at MMP-13, 3050 nM at MMP-1 and 1 nM against MMP-2.

On to `CCN(CC)c1ccc(C(=O)N[C@@H](CS(=O)(=O)c2ccc(Oc3ccccc3)cc2)C(=O)NO)cc1` [Example 53], for which the results for the IC50 on MMP-13, at MMP-1 and against MMP-2 were 2.1 nM, 8100 nM and 0.3 nM, respectively.

Take `CC(=O)N(C)[C@@H](CS(=O)(=O)c1ccc(Oc2ccccc2)cc1)C(=O)NO` [Example 43]: the half-inhibitory concentration (IC50) at MMP-13 was determined as 0.2 nM; on MMP-1 it was 90 nM; against MMP-2 it was 0.2 nM.

As for `CNC(CS(=O)(=O)c1ccc(NC(=O)c2ccccc2)cc1)C(=O)NO` (stereo not drawn) [Example 64], the IC50 was determined as 8.1 nM at MMP-13, 7000 nM on MMP-1 and 0.4 nM at MMP-2.

These data come from patent US6583299B1, “α-amino-β-sulfonyl hydroxamic acid compounds” (priority 1999, dated 2003).
